# Source: the supplement of paper PMC4862054
# Assays:
# Assay in all cases: normalised viability (% of control), CellTiter-Blue; higher = more viable cells (about 100 = DMSO control)
# Details in all cases: incubation time: 72 h
# BT-474 = tested on: BT-474
# Protocol: (§1)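 DSRT, CellTiter-Blue viability, 72 h incubation. Signal is normalised to DMSO and benzethonium chloride controls. Value is the normalised response at dose 3.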
# BT-549 = tested on: BT-549
# Protocol: as §1
# CAL-120 = tested on: CAL-120
# Protocol: as §1
# CAL-148 [1] = tested on: CAL-148
# Protocol: as §1
# CAL-51 [2] = tested on: CAL-51
# Protocol: as §1
# CAL-85-1 [3] = tested on: CAL-85-1
# Protocol: as §1
# DU-4475 [4] = tested on: DU-4475
# Protocol: as §1
# HCC1143 = tested on: HCC1143
# Protocol: as §1
# HCC1599 = tested on: HCC1599
# Protocol: as §1
# HCC1937 = tested on: HCC1937
# Protocol: as §1
# HDQ-P1 [5] = tested on: HDQ-P1
# Protocol: as §1
# Hs578T = tested on: Hs578T
# Protocol: as §1
# MDA-MB-231 = tested on: MDA-MB-231
# Protocol: as §1
# MDA-MB-436 = tested on: MDA-MB-436
# Protocol: as §1
# MDA-MB-453 [6] = tested on: MDA-MB-453
# Protocol: as §1
# MDA-MB-468 = tested on: MDA-MB-468
# Protocol: as §1
# MFM-223 = tested on: MFM-223
# Protocol: as §1
# SK-BR-3 = tested on: SK-BR-3
# Protocol: as §1
# CAL-148 [7] = tested on: CAL-148; remark: listed apart in the source
# Protocol: (§2)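 DSRT, CellTiter-Blue viability, 72 h incubation. Signal is normalised to DMSO and benzethonium chloride controls. Value is the normalised response at dose 6.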
# CAL-51 [8] = tested on: CAL-51; remark: listed apart in the source
# Protocol: as §2
# CAL-85-1 [9] = tested on: CAL-85-1; remark: listed apart in the source
# Protocol: as §2
# DU-4475 [10] = tested on: DU-4475; remark: listed apart in the source
# Protocol: as §2
# HDQ-P1 [11] = tested on: HDQ-P1; remark: listed apart in the source
# Protocol: as §2
# MDA-MB-453 [12] = tested on: MDA-MB-453; remark: listed apart in the source
# Protocol: as §2
# CAL-148 [13] = tested on: CAL-148; remark: listed apart in the source
# Protocol: (§3)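 DSRT, CellTiter-Blue viability, 72 h incubation. Signal is normalised to DMSO and benzethonium chloride controls. Value is the normalised response at dose 9.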
# CAL-51 [14] = tested on: CAL-51; remark: listed apart in the source
# Protocol: as §3
# CAL-85-1 [15] = tested on: CAL-85-1; remark: listed apart in the source
# Protocol: as §3
# DU-4475 [16] = tested on: DU-4475; remark: listed apart in the source
# Protocol: as §3
# HDQ-P1 [17] = tested on: HDQ-P1; remark: listed apart in the source
# Protocol: as §3
# MDA-MB-453 [18] = tested on: MDA-MB-453; remark: listed apart in the source
# Protocol: as §3
structure (smiles),measurement,setting,value
Nc1nc2[nH]cc(CCc3ccc(C(=O)N[C@@H](CCC(=O)O)C(=O)O)cc3)c2c(=O)[nH]1 [Pemetrexed],normalised viability,BT-474; 100 nM,125%
same,normalised viability,BT-549; 100 nM,87.8%
same,normalised viability,CAL-120; 100 nM,86%
same,normalised viability,CAL-148 [1]; 10 nM,101%
same,normalised viability,CAL-51 [2]; 10 nM,108%
same,normalised viability,CAL-85-1 [3]; 10 nM,99.8%
same,normalised viability,DU-4475 [4]; 10 nM,104%
same,normalised viability,HCC1143; 100 nM,91.6%
same,normalised viability,HCC1599; 100 nM,88.9%
same,normalised viability,HCC1937; 100 nM,92.8%
same,normalised viability,HDQ-P1 [5]; 10 nM,120%
same,normalised viability,Hs578T; 100 nM,102%
same,normalised viability,MDA-MB-231; 100 nM,94.9%
same,normalised viability,MDA-MB-436; 100 nM,97.2%
same,normalised viability,MDA-MB-453 [6]; 10 nM,118%
same,normalised viability,MDA-MB-468; 100 nM,99%
same,normalised viability,MFM-223; 100 nM,91.6%
same,normalised viability,SK-BR-3; 100 nM,84%
same,normalised viability,CAL-148 [7]; 300 nM,106%
same,normalised viability,CAL-51 [8]; 300 nM,110%
same,normalised viability,CAL-85-1 [9]; 300 nM,107%
same,normalised viability,DU-4475 [10]; 300 nM,93.6%
same,normalised viability,HDQ-P1 [11]; 300 nM,83.7%
same,normalised viability,MDA-MB-453 [12]; 300 nM,102%
same,normalised viability,CAL-148 [13]; 10000 nM,66.5%
same,normalised viability,CAL-51 [14]; 10000 nM,91%
same,normalised viability,CAL-85-1 [15]; 10000 nM,55.4%
same,normalised viability,DU-4475 [16]; 10000 nM,99.7%
same,normalised viability,HDQ-P1 [17]; 10000 nM,106%
same,normalised viability,MDA-MB-453 [18]; 10000 nM,92.6%
Cc1cnc(NC(=O)Nc2cc(Br)c(C)cc2OC[C@@H]2CNCCO2)cn1,normalised viability,BT-474; 10 nM,101%
same,normalised viability,BT-549; 10 nM,87.3%
same,normalised viability,CAL-120; 10 nM,87.9%
same,normalised viability,CAL-148 [1]; 1 nM,90.3%
same,normalised viability,CAL-51 [2]; 1 nM,95%
same,normalised viability,CAL-85-1 [3]; 1 nM,91.4%
same,normalised viability,DU-4475 [4]; 1 nM,90.8%
same,normalised viability,HCC1143; 10 nM,82.5%
same,normalised viability,HCC1599; 10 nM,122%
same,normalised viability,HCC1937; 10 nM,127%
same,normalised viability,HDQ-P1 [5]; 1 nM,90.1%
same,normalised viability,Hs578T; 10 nM,101%
same,normalised viability,MDA-MB-231; 10 nM,103%
same,normalised viability,MDA-MB-436; 10 nM,112%
same,normalised viability,MDA-MB-453 [6]; 1 nM,104%
same,normalised viability,MDA-MB-468; 10 nM,104%
same,normalised viability,MFM-223; 10 nM,89.6%
same,normalised viability,SK-BR-3; 10 nM,88.3%
same,normalised viability,CAL-148 [7]; 30 nM,91.7%
same,normalised viability,CAL-51 [8]; 30 nM,95.7%
same,normalised viability,CAL-85-1 [9]; 30 nM,92%
same,normalised viability,DU-4475 [10]; 30 nM,106%
same,normalised viability,HDQ-P1 [11]; 30 nM,68.4%
same,normalised viability,MDA-MB-453 [12]; 30 nM,94.3%
same,normalised viability,CAL-148 [13]; 1000 nM,56.7%
same,normalised viability,CAL-51 [14]; 1000 nM,89.3%
same,normalised viability,CAL-85-1 [15]; 1000 nM,68.3%
same,normalised viability,DU-4475 [16]; 1000 nM,72%
same,normalised viability,HDQ-P1 [17]; 1000 nM,106%
same,normalised viability,MDA-MB-453 [18]; 1000 nM,65.2%
